Source: ChEMBL document CHEMBL3098113, “Identification of quinones as HER2 inhibitors for the treatment of trastuzumab resistant breast cancer” (Bioorg Med Chem Lett, 2014)
The source made the active and inactive calls. No cut-off for these calls is given here.

Legend:
MCF7 [1] = experiment: Inhibition of HER2 delta16 mutant autophosphorylation at Y1248 in human MCF7 cells at 10 uM after 2 hrs by Western blotting; type: cell-based
[2] = biological target: T1, Receptor tyrosine-protein kinase erbB-2 (Homo sapiens, UniProt P04626); experiment: Inhibition of HER2 autophosphorylation at Y1248 in human MCF7 cells at 10 uM after 2 hrs by Western blotting; type: cell-based
[3] = biological target: T1, Receptor tyrosine-protein kinase erbB-2; experiment: Inhibition of HER2 autophosphorylation at Y1248 in human MCF7 cells expressing pcDNA3 at 10 uM after 2 hrs by Western blotting; type: cell-based
[4] = biological target: T1, Receptor tyrosine-protein kinase erbB-2; experiment: Inhibition of HER2 (unknown origin) by ADP-Glo assay
MCF7 [5] = experiment: Cytotoxicity against human MCF7 cells expressing HER2delta16 assessed as reduction of cell viability after 48 hrs CellTiter-Glo assay; type: functional, cell-based; conditions: MCF7, 48 h
MCF7 [6] = experiment: Cytotoxicity against human MCF7 cells expressing HER2 assessed as reduction of cell viability after 48 hrs CellTiter-Glo assay; type: functional, cell-based; conditions: MCF7, 48 h
MCF7 [7] = experiment: Cytotoxicity against human MCF7 cells expressing pcDNA3 assessed as reduction of cell viability after 48 hrs CellTiter-Glo assay; type: functional, cell-based; conditions: MCF7, 48 h
MCF7 [8] = experiment: Cytotoxicity against human MCF7 cells expressing pcDNA3 assessed as reduction of cell viability at 10 uM after 48 hrs CellTiter-Glo assay; type: functional
MCF7 [9] = experiment: Cytotoxicity against human MCF7 cells expressing HER2delta16 assessed as reduction of cell viability at 10 uM after 48 hrs CellTiter-Glo assay; type: functional
MCF7 [10] = experiment: Cytotoxicity against human MCF7 cells expressing HER2 assessed as reduction of cell viability at 10 uM after 48 hrs CellTiter-Glo assay; type: functional

T1 sequence (P04626 whole entry): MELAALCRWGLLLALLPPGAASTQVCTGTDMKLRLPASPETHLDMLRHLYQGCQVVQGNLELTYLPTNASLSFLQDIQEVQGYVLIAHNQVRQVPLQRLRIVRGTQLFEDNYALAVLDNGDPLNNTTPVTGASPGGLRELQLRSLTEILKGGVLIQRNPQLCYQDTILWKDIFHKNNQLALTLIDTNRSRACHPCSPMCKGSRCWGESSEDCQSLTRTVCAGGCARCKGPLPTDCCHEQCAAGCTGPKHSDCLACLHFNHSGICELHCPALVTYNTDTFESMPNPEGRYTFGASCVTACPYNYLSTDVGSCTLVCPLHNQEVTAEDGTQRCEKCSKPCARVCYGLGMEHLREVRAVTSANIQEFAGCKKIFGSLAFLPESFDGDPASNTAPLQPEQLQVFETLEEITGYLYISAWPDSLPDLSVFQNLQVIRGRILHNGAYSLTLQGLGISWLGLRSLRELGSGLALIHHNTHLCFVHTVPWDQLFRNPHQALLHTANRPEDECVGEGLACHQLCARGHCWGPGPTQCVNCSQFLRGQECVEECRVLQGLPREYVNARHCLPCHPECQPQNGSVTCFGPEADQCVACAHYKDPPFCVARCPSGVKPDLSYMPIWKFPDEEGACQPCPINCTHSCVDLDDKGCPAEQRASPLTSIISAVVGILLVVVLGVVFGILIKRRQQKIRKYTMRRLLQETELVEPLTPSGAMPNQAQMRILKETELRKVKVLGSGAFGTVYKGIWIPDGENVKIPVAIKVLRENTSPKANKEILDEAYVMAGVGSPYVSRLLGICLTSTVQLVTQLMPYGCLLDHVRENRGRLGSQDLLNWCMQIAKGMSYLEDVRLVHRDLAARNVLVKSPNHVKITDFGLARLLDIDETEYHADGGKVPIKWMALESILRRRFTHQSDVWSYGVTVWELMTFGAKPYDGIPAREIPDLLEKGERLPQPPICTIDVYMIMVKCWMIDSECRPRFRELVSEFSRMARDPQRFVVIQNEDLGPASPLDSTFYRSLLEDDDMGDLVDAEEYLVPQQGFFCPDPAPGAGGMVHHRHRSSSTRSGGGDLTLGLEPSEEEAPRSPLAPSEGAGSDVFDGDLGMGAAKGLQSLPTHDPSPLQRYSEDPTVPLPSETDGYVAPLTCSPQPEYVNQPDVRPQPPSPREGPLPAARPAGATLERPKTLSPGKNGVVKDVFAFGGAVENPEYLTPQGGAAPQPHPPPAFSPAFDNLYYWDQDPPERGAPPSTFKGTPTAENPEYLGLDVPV

SMILES	inhibition (MCF7 [1])	inhibition [2]	inhibition [3]	IC50 [4]	IC50 (MCF7 [5])	IC50 (MCF7 [6])	IC50 (MCF7 [7])	Activity (MCF7 [8])	Activity (MCF7 [9])	Activity (MCF7 [10])
CC1=CC(=O)c2c(O)cccc2C1=O [PLUMBAGIN]	Active	Active	Active	30.8 µM	5.1 µM	2.84 µM	3.35 µM	>90%	>90%	>90%
O=C1C2=C(C(=O)c3c(O)ccc(O)c31)[C@@H](O)[C@@H](O)[C@@H](O)C2	Active	Active	Active	10.8 µM	0.91 µM	0.87 µM	0.47 µM	>90%	>90%	>90%
CC(=O)Oc1ccc(O)c2c1C(=O)C=CC2=O	inactive	inactive	inactive							
CS(=O)(=O)CCNCc1ccc(-c2ccc3ncnc(Nc4ccc(OCc5cccc(F)c5)c(Cl)c4)c3c2)o1 [LAPATINIB]	Active	Active	Active		19.2 µM	15.8 µM	15.7 µM	<50%	<50%	<50%
O=C1C(CO)=C(CO)C(=O)c2c(O)ccc(O)c21	Active	Active	Active	11.4 µM	0.93 µM	0.82 µM	0.5 µM	>90%	>90%	>90%
